Earlier results as cited in US20230414606A1 (Lake O'Hara LLC, priority 2022, published 2023).

Experiments:
CYP3A4 = CYP3A4 (Homo sapiens, UniProt P08684); conditions: based on the literature, model input
[1] = previous studies, no patients with BMI>35 kg/m2
[2] = based on the literature, model input

CYP3A4, sequence (P08684 whole entry): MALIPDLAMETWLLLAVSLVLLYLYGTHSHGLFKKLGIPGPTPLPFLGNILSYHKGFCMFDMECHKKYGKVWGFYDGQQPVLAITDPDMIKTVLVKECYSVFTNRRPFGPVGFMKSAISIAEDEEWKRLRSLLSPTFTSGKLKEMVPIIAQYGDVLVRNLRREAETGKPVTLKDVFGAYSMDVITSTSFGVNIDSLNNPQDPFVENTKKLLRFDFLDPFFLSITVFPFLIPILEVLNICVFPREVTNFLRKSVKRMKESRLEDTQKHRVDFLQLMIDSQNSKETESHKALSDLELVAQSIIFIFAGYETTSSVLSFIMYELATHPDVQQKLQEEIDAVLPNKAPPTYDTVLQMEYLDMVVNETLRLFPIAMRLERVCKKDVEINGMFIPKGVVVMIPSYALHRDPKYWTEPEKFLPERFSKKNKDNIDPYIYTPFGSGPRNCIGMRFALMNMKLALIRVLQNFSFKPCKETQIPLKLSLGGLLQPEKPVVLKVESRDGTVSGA

In the case of `O=c1ccc2ccc(OCCCCN3CCN(c4cccc5sccc45)CC3)cc2[nH]1` [brexpiprazole, 7-14-14-(1-Benzothiophen-4-yl)piperazin-1-yllbutoxylquinolin-2(1H)-one], the “brexpiprazole clearance due to CYP3A4” value (CYP3A4) is given as 46.7%, the “decrease of baseline clearance by CYP2D6 PM status” value (CYP2D6; CYP2D6 PM) is given as about 30% and the “brexpiprazole clearance due to CYP2D6” value (CYP2D6; [2]) is given as 43.3%. The “brexpiprazole clearance due to other routes” value [2] was 10%, the renal clearance (model assumption, clearance entirely in the liver) was about 1% and the “effect of weight on the pharmacokinetics of brexpiprazole” value [1] was “less than 20%”.
